The record followed here is ChEMBL document CHEMBL5154866 (J Med Chem, 2022).

Each structure is given as a SMILES string.

A short description of data set [1]: Antiproliferative activity against human KM12-Luc cells assessed as inhibition of cell growth incubated for 3 days by CCK8 assay. The class given is functional, cell-based. Particulars: 72 h.
The test system of data set [2] is BaF3. Nature of the data set: Antiproliferative activity against mouse BaF3 cells expressing ETV6 fused TRKC G696C mutant incubated for 3 days by CCK8 assay. The conditions noted are these: BaF3, 72 h.
The subject of data set [3] is BaF3. In words: Antiproliferative activity against mouse BaF3 cells expressing ETV6 fused TRKC G696A mutant incubated for 3 days by CCK8 assay. The conditions noted are these: BaF3, 72 h. (Tetrazolium dyes change colour on reduction, which living cells bring about.)
Data set [4] concerns BaF3. Nature of the data set: Antiproliferative activity against mouse BaF3 cells expressing ETV6 fused TRKC V573M mutant incubated for 3 days by CCK8 assay. The conditions noted are these: BaF3, 72 h.
Data set [5] deals with BaF3. Nature of the data set: Antiproliferative activity against mouse BaF3 cells expressing CD74 fused TRKA G667A mutant incubated for 3 days by CCK8 assay. The conditions noted are these: BaF3, 72 h.
The test system of data set [6] is BaF3. In words: Antiproliferative activity against mouse BaF3 cells expressing CD74 fused TRKA G667S mutant incubated for 3 days by CCK8 assay. The conditions noted are these: BaF3, 72 h.
Data set [7] concerns BaF3. In words: Antiproliferative activity against mouse BaF3 cells expressing ETV6 fused TRKC G623R mutant incubated for 3 days by CCK8 assay. Particulars: BaF3, 72 h.
Data set [8] deals with BaF3. In words: Antiproliferative activity against mouse BaF3 cells assessed as inhibition of cell growth incubated for 3 days by CCK8 assay. The class given is functional, cell-based. The conditions noted are these: BaF3, 72 h.
Data set [9] relates to BaF3. Nature of the data set: Antiproliferative activity against mouse BaF3 cells expressing ETV6 fused TRKC G623E mutant incubated for 3 days by CCK8 assay. The conditions noted are these: BaF3, 72 h.
The subject of data set [10] is BaF3. In words: cells. Particulars: Mus musculus, BaF3, 72 h.
The test system of data set [11] is BaF3. In words: Antiproliferative activity against mouse BaF3 cells expressing ETV6 fused TRKC G696S mutant incubated for 3 days by CCK8 assay. Particulars: BaF3, 72 h.
Data set [12] addresses High affinity nerve growth factor receptor (Homo sapiens, UniProt P04629, G667C). In words: Inhibition of TRKA G667C mutant (unknown origin) using Ser/Thr 06 peptide as substrate incubated for 1 hr in presence of 400 uM ATP by FRET based Z'-Lyte assay.
The target in data set [13] is High affinity nerve growth factor receptor (Homo sapiens, UniProt P04629, G595R). Nature of the data set: Inhibition of TRKA G595R mutant (unknown origin) by HTRF assay.
Data set [14] addresses High affinity nerve growth factor receptor (Homo sapiens, UniProt P04629). In words: Inhibition of N-terminal hexahistidine tagged TRKA (485 to 795 residues) (unknown origin) expressed in Sf9 cells using Ser/Thr 06 peptide as substrate incubated for 1 hr in presence of 400 uM ATP by FRET based Z'-Lyte assay.
The subject of data set [15] is BaF3. In words: Antiproliferative activity against mouse BaF3 cells expressing ETV6 fused TRKC assessed as cell growth inhibition incubated for 3 days by CCK8 assay. The conditions noted are these: BaF3, 72 h.
Data set [16] deals with BaF3. Nature of the data set: cells. Particulars: Mus musculus, BaF3, 72 h. The source holds these as a separate data set.
For data set [17], the system named is BaF3. Nature of the data set: Antiproliferative activity against mouse BaF3 cells expressing CD74 fused TRKA assessed as cell growth inhibition incubated for 3 days by CCK8 assay. The conditions noted are these: BaF3, 72 h.
The target of a further data set is Ephrin type-A receptor 7 (Homo sapiens, UniProt Q15375). Nature of the data set: Inhibition of human wild type partial length EphA7 (Y608 to S912 residues) expressed in bacterial expression system by Kinomescan method.
Data set [18] concerns the target T1, Discoidin domain-containing receptor 2 (Homo sapiens, UniProt Q16832).
T1 sequence (Q16832 whole entry): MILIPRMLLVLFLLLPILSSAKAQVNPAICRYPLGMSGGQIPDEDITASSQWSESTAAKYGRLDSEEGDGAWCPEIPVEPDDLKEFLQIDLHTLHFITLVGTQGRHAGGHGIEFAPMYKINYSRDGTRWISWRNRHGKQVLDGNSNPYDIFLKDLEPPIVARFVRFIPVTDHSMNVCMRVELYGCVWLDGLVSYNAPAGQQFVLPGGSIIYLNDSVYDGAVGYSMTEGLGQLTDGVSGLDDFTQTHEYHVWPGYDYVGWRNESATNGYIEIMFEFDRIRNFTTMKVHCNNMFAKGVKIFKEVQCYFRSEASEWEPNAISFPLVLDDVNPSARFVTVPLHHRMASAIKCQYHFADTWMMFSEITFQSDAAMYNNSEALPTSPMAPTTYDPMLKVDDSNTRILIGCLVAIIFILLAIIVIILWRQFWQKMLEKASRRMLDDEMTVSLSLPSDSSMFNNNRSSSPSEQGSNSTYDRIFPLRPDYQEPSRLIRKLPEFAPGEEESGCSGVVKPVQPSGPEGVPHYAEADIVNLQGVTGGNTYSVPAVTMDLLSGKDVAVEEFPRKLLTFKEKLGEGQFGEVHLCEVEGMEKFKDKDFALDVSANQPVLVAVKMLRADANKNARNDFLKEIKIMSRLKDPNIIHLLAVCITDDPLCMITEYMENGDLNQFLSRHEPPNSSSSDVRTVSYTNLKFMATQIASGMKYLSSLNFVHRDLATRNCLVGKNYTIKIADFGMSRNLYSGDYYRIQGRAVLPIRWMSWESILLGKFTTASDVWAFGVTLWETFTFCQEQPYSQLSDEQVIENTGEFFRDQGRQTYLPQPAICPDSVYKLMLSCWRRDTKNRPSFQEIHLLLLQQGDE
Nature of the data set: Inhibition of human wild type partial length DDR2 (V555 to E855 residues) expressed in mammalian expression system by Kinomescan method.

For a further data set, the target named is Angiopoietin-1 receptor (Homo sapiens, UniProt Q02763). Nature of the data set: Inhibition human wild type partial length Tie2 (N804 to T1112 residues) expressed in bacterial expression system by Kinomescan method.
Data set [19] can be described thus: AUC (0 to t) in Sprague-Dawley rat at 10 mg/kg, po measured upto 24 hrs by LC-MS/MS analysis. More on the design: time < 24 hrs, dose 10 mg/kg, route po. The class given is ADME, organism-based. Particulars: in vivo.
The target of data set [20] is Epithelial discoidin domain-containing receptor 1 (Homo sapiens, UniProt Q08345). In words: Inhibition of human wild type partial length DDR1(R565 to V876 residue) expressed in bacterial expression system by Kinomescan method.
Data set [21] can be described thus: Cmax in Sprague-Dawley rat at 10 mg/kg, po measured upto 24 hrs by LC-MS/MS analysis. The class given is ADME, organism-based. Details: dose 10 mg/kg, time < 24 hrs, route po. The conditions noted are these: in vivo.

Chain of High affinity nerve growth factor receptor (Homo sapiens, UniProt P04629) (P04629 whole entry, the tested form may be a part): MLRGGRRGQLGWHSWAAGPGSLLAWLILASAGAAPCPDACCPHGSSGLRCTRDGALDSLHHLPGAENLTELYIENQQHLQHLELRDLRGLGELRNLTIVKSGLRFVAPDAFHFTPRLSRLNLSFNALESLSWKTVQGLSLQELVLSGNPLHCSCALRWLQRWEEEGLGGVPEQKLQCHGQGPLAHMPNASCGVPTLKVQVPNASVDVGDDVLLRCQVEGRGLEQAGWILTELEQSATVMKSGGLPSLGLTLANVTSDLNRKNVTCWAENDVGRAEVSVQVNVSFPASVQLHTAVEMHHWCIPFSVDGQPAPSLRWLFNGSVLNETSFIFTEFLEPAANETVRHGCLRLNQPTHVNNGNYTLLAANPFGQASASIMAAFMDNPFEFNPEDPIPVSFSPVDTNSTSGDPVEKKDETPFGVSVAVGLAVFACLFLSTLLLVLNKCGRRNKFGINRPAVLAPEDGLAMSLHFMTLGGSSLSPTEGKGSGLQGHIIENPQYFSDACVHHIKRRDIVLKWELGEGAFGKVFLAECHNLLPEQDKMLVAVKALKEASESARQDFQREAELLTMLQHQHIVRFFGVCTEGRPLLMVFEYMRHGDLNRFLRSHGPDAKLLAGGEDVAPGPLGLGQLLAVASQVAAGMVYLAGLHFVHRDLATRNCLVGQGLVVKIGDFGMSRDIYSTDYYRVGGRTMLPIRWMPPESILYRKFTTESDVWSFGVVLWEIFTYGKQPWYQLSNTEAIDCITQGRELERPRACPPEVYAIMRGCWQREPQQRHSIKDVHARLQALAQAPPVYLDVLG
Chain of High affinity nerve growth factor receptor (Homo sapiens, UniProt P04629, G595R) (P04629 33-796 G595R limits assumed): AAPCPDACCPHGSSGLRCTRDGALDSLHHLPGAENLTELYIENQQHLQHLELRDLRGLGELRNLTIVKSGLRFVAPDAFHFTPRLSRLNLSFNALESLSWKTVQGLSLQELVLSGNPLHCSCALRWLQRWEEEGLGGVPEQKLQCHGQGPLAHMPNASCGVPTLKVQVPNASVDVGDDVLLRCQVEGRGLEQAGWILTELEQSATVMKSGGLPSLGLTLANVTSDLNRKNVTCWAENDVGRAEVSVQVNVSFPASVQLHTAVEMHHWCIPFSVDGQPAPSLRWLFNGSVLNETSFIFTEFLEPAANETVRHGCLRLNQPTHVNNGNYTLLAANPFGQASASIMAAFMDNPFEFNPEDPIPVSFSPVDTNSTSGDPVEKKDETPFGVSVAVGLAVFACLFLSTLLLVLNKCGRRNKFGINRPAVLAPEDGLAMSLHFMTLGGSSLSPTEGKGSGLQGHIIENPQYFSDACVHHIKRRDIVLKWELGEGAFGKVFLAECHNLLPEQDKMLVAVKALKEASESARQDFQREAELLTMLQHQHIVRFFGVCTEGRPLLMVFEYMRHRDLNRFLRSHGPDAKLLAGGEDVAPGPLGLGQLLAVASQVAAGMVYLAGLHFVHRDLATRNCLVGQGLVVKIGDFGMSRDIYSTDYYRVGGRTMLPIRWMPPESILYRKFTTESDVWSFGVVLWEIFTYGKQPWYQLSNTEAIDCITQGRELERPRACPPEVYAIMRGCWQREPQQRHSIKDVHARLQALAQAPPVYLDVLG
Chain of High affinity nerve growth factor receptor (Homo sapiens, UniProt P04629, G667C) (P04629 33-796 G667C limits assumed): as the sequence (P04629 33-796 G595R limits assumed) above, with R563G, G635C counted along it
Chain of Ephrin type-A receptor 7 (Q15375 whole entry, the tested form may be a part): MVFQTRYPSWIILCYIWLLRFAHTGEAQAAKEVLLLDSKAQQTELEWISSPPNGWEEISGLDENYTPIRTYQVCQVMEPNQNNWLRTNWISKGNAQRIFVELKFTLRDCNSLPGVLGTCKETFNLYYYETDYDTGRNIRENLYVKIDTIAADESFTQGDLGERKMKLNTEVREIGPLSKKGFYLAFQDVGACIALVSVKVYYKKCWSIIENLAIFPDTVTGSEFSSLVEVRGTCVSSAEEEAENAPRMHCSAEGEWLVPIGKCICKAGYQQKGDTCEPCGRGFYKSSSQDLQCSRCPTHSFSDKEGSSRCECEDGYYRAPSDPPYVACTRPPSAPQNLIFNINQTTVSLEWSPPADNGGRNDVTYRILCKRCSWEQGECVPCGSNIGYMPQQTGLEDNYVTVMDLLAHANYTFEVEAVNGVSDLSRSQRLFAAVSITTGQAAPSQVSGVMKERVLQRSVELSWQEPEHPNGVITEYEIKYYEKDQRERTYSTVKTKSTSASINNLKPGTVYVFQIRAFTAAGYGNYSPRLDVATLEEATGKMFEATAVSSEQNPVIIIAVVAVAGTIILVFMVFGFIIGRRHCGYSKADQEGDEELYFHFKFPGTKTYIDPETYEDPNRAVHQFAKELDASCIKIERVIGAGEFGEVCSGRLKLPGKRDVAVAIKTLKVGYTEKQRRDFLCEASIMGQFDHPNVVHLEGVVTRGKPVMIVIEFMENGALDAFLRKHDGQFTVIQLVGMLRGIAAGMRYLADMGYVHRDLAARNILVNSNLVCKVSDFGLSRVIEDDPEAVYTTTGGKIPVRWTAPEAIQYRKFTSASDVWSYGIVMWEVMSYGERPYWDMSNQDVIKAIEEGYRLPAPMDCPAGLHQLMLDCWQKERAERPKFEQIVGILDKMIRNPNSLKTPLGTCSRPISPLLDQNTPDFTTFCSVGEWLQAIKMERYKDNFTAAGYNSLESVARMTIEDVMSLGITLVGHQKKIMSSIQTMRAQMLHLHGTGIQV
Chain of Epithelial discoidin domain-containing receptor 1 (Q08345 whole entry, the tested form may be a part): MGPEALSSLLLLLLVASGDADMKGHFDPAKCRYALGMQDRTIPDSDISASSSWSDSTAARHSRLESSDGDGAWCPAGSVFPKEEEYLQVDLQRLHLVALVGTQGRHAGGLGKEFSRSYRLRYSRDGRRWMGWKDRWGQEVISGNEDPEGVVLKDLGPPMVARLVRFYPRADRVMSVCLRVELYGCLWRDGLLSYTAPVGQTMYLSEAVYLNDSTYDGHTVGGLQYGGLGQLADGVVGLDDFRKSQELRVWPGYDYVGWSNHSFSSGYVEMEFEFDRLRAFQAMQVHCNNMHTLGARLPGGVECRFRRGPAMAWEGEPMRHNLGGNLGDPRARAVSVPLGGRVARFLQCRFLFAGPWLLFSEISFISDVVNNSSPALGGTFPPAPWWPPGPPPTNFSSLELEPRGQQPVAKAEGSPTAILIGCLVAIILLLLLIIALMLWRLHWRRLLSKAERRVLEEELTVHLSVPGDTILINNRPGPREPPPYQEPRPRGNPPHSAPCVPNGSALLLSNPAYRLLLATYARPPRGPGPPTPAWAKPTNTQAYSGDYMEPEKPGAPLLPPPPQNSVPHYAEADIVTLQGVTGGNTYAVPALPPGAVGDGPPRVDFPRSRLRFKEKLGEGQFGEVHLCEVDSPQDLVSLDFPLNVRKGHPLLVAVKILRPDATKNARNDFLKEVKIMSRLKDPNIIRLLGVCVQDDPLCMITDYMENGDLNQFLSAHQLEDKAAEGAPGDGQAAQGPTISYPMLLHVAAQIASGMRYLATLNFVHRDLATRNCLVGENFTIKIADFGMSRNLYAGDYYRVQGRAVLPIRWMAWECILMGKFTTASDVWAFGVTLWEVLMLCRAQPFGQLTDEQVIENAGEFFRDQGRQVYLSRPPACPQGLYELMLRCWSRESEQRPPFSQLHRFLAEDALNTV
Chain of Angiopoietin-1 receptor (Q02763 whole entry, the tested form may be a part): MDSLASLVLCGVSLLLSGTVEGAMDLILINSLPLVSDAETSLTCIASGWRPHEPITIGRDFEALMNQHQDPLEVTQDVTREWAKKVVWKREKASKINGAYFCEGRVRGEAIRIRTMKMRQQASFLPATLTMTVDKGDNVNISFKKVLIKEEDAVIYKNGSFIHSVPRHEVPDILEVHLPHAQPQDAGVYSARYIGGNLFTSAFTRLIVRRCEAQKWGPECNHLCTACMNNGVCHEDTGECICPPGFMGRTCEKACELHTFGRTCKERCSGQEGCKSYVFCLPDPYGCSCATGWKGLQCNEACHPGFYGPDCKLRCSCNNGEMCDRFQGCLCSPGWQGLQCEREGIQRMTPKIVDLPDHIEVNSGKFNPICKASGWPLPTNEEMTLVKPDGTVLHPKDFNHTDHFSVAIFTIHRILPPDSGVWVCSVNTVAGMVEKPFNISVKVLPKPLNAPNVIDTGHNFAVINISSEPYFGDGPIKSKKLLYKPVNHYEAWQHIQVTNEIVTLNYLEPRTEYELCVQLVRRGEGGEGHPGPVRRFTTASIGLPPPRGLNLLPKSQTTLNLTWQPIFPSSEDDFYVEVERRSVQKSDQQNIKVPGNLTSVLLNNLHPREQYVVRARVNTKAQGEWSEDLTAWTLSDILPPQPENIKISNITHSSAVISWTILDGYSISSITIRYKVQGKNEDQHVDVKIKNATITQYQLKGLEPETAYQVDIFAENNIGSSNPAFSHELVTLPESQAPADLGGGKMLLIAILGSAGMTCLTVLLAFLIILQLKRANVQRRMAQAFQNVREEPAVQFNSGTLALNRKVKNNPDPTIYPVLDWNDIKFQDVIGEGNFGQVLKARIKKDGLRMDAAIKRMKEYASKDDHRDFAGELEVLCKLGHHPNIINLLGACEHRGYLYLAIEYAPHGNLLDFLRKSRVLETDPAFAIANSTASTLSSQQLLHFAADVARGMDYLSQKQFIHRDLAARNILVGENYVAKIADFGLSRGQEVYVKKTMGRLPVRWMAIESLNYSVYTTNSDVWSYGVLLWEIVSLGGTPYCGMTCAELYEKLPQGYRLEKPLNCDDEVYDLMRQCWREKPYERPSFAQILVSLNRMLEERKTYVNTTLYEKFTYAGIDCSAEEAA

What is called IC50 is the concentration needed to halve the response being measured. For the molecule `C[C@@H]1CCc2ncc(F)cc2[C@H]2CCCN2c2ccn3ncc(c3n2)C(=O)N1` [SELITRECTINIB], the IC50 in data set [1] amounted to 2.3 nM; in the data set with BaF3 [2], 28.2 nM; with BaF3 [3] it was 2.4 nM; in the data set with BaF3 [4], 10.7 nM; in the data set on BaF3 [5] it was 3.2 nM; with BaF3 [6], 10.5 nM. In addition, the IC50 in the data set on BaF3 [7] was 8.5 nM; with BaF3 [8], over 10000 nM; with BaF3 [9], 5.7 nM; with BaF3 [10], 41 nM; with BaF3 [11] it was 8.2 nM.
`Cc1c2cc(cc1C(=O)Nc1cc(CN3CCN(C)CC3)cc(C(F)(F)F)c1)OCCCCC(=O)NCCN(C)c1ccc3ncc(n3n1)C#C2`: the IC50 in data set [12] turned out to be 2.7 nM; in data set [13], 80.6 nM; in data set [14], 7.8 nM; in the data set with BaF3 [15], 180 nM; in the data set with BaF3 [16] it was 520 nM; in the data set with BaF3 [17] it was 140 nM. Also, the IC50 with BaF3 [10] was found to be 35 nM.
In general, AUC(0-t) refers to exposure summed from dosing to a finite time, without extrapolation to infinity. Read a high AUC(0-t) as more exposure. For orientation: Cmax means the maximum level reached in the sampled fluid or tissue. As for `Cc1cn(-c2cc(NC(=O)c3cc4cc(c3C)C#Cc3cnc5ccc(nn35)N(C)CCNC(=O)CCCCO4)cc(C(F)(F)F)c2)cn1`, the IC50 on Ephrin type-A receptor 7 amounted to 162 nM; in data set [18], 313 nM; against Angiopoietin-1 receptor, 217 nM; in data set [20], 26.4 nM. The molecule further returned an AUC(0-t) at 24 h in data set [19] of 51.6 ng·h/mL. Further, the peak level in data set [21] (Cmax) was 19.1 ng/mL.
On to `O=C(Nc1cnn2ccc(N3CCC[C@@H]3c3cc(F)ccc3F)nc12)N1CC[C@H](O)C1` [LAROTRECTINIB], for which the IC50 in the data set with BaF3 [15] came to 7 nM; with BaF3 [16] it was 1550 nM; with BaF3 [2] it was 332 nM; with BaF3 [3], 14.8 nM; in the data set with BaF3 [4] it was 173 nM; with BaF3 [5] it was 10.1 nM. Besides, the IC50 in the data set on BaF3 [6] is 38.2 nM; in the data set on BaF3 [7], over 1000 nM; in the data set on BaF3 [9], 96 nM; in the data set on BaF3 [17] it was 9 nM; in the data set with BaF3 [10] it was 110 nM.
